Results from ChEMBL document CHEMBL6096670, “Design, synthesis and biological evaluation of novel β-carbolines as antitumor agents via targeting autophagy in colorectal cancer” (Eur J Med Chem, 2025).
Calls of active or inactive are those of the source. The calls are words filed in the database; no cut-off is given here.

What was measured:
HepG2 = assay: Antiproliferative activity against human HepG2 cells assessed as inhibition of cell growth incubated for 48 hrs by MTT assay; format: functional, cell-based; settings: HepG2, 48 h
[1] = Toxicity in female BALB/c mouse implanted with mouse CT26 cells assessed as change in liver morphology at 1 to 2 mg/kg administrated once every 3 days for 18 days by H&E staining based analysis; format: organism-based; settings: in vivo, 432 h, dose 1-2 mg/kg, time 18 day
HCT-116 [2] = assay: Antiproliferative activity against human HCT-116 assessed as inhibition of cell viability at 0.5 to 2 uM by CCK8 method; format: functional, cell-based; settings: dose 0.5-2 µM, time <= 7.0 day
HCT-116 [3] = assay: Induction of autophagy pathway in human HCT-116 cells at 1 uM incubated for 24 hrs by GSEA analysis; format: functional, cell-based
HCT-116 [4] = assay: Induction of morphological changes in human HCT-116 cells assessed as suppression of cell growth at 0.5 to 2 uM by microscopic analysis; format: functional, cell-based; settings: dose 0.5-2 µM
HCT-116 [5] = assay: Induction of apoptosis in human HCT-116 assessed as early apoptotic cells at 1 uM pretreated with Z-VAD-FMK for 30 mins followed by compound addition and measured after 24 hrs by Annexin V-FITC/PI double staining based flow cytometry (reference value: 0.95%); format: functional
HCT-116 [6] = assay: Induction of apoptosis in human HCT-116 assessed as late apoptotic cells at 2 uM incubated for 24 hrs Annexin V FITC/PI double staining based flow cytometry (reference value: 8.02 %); format: functional
HCT-116 [7] = assay: Antiproliferative activity against ATG5 knockout human HCT-116 cells assessed as inhibition of cell viability incubated for 24 hrs by CCK8 assay; format: functional, cell-based; settings: HCT-116, 24 h
HCT-116 [8] = assay: Inhibition of colony formation in human HCT-116 cells assessed as reduction in number of colonies at 0.5 to 2 uM measured after 24 hrs by crystal violet staining based analysis; format: functional, cell-based; settings: dose 0.5-2 µM
HCT-116 [9] = assay: Induction of apoptosis in human HCT-116 assessed as late apoptotic cells at 2 uM pretreated with Z-VAD-FMK for 30 mins followed by compound addition and measured after 24 hrs by Annexin V-FITC/PI double staining based flow cytometry (reference value: 7.43%); format: functional
HCT-116 [10] = assay: Induction of autophagy in human HCT-116 cells transfected with mRFP-GFP-LC3B assessed as autophagolysosome formation by measuring increase in mRFP to GFP fluorescence ratio at 0.5 to 2 uM incubated for 24 hrs by DAPI staining based fluorescence confocal microscopic analysis; format: functional, cell-based; settings: dose 0.5-2 µM
MCF7 = assay: Antiproliferative activity against human MCF7 cells assessed as inhibition of cell growth incubated for 48 hrs by MTT assay; format: functional, cell-based; settings: MCF7, 48 h
HCT-116 [11] = assay: Induction of morphological changes in human HCT-116 cells assessed as appearance of rounder cells at 0.5 to 2 uM by microscopic analysis; format: functional, cell-based; settings: dose 0.5-2 µM
HCT-116 [12] = assay: Effect on apoptosis pathway related genes expression in human HCT-116 cells at 1 uM incubated for 24 hrs by GSVA enrichment analysis; format: functional, cell-based
HCT-116 [13] = assay: Inhibition of cell migration in human HCT-116 cells at 1 to 2 uM incubated for 24 hrs by cell scratch assay; format: functional, cell-based; settings: dose 1-2 µM
BGC-823 = assay: Antiproliferative activity against human BGC-823 cells assessed as inhibition of cell growth incubated for 48 hrs by MTT assay; format: functional, cell-based; settings: BGC-823, 48 h
HCT-116 [14] = assay: Effect on C-PARP expression level in Bax knockout human HCT-116 cells at 1 to 2 uM incubated for 24 hrs by Western blot analysis; format: functional, cell-based; settings: dose 1-2 µM
HCT-116 [15] = assay: Antiproliferative activity against p53 knockout human HCT-116 cells assessed as inhibition of cell viability incubated for 24 hrs by CCK8 assay; format: functional, cell-based; settings: HCT-116, 24 h
HCT-116 [16] = assay: Induction of morphological changes in human HCT-116 cells assessed as appearance of inflated cell shape at 0.5 to 2 uM by microscopic analysis; format: functional, cell-based; settings: dose 0.5-2 µM
HCT-116 [17] = assay: Induction of apoptosis in human HCT-116 assessed as necrotic cells at 1 uM incubated for 24 hrs Annexin V FITC/PI double staining based flow cytometry (reference value: 0.94 %); format: functional
[18] = Toxicity in female BALB/c mouse implanted with mouse CT26 cells assessed as change in lung morphology at 1 to 2 mg/kg administrated once every 3 days for 18 days by H&E staining based analysis; format: organism-based; settings: in vivo, 432 h, dose 1-2 mg/kg, time 18 day
HCT-116 [19] = assay: Induction of apoptosis in human HCT-116 assessed as early apoptotic cells at 2 uM pretreated with Z-VAD-FMK for 30 mins followed by compound addition and measured after 24 hrs by Annexin V-FITC/PI double staining based flow cytometry (reference value: 0.95%); format: functional
HCT-116 [20] = assay: Induction of apoptosis in human HCT-116 assessed as viable cells at 2 uM pretreated with Z-VAD-FMK for 30 mins followed by compound addition and measured after 24 hrs by Annexin V-FITC/PI double staining based flow cytometry (reference value: 90.8%); format: functional; settings: read-out: Activity
[21] = Toxicity in female BALB/c mouse implanted with mouse CT26 cells assessed as change in spleen morphology at 1 to 2 mg/kg administrated once every 3 days for 18 days by H&E staining based analysis; format: organism-based; settings: in vivo, 432 h, dose 1-2 mg/kg, time 18 day
HCT-116 [22] = assay: Effect on PARP expression level in p53 knockout human HCT-116 cells at 1 to 2 uM incubated for 24 hrs by Western blot analysis; format: functional, cell-based; settings: dose 1-2 µM
HCT-116 [23] = assay: Induction of autophagy in human HCT-116 cells transfected with mRFP-GFP-LC3B assessed as appearance of RFP aggregate clusters in cytoplasm at 0.5 to 2 uM incubated for 24 hrs by DAPI staining based fluorescence confocal microscopic analysis; format: functional, cell-based; settings: dose 0.5-2 µM
A-375 = assay: Antiproliferative activity against human A-375 cells assessed as inhibition of cell growth incubated for 48 hrs by MTT assay; format: functional, cell-based; settings: A-375, 48 h
HCT-116 [24] = assay: Induction of apoptosis in human HCT-116 cells assessed as effect on cleaved caspase 9 expression level at 0.5 to 2 uM incubated for 24 hrs by Western blot analysis; format: functional, cell-based; settings: dose 0.5-2 µM
HCT-116 [25] = assay: Induction of apoptosis in human HCT-116 assessed as viable cells at 1 uM incubated for 24 hrs Annexin V FITC/PI double staining based flow cytometry (Rvb =90.0%); format: functional; settings: read-out: Activity
CT26 = assay: Antitumor activity against mouse CT26 cells implanted in female BALB/c mouse assessed as reduction in tumor volume at 1 to 2 mg/kg administrated once every 3 days for 18 days; format: functional, organism-based; settings: dose 1-2 mg/kg, time 18.0 day
HCT-116 [26] = assay: Induction of autophagy in ATG7 knockout human HCT-116 cells assessed as increase in LC3-II expression at 1 to 2 uM incubated for 24 hrs by Western blot analysis; format: functional, cell-based; settings: dose 1-2 µM
HCT-116 [27] = assay: Inhibition of colony formation in ATG7 knockout human HCT-116 cells assessed as reduction in number of colonies at 1 to 4 uM measured after 24 hrs by crystal violet staining based analysis; format: functional, cell-based; settings: dose 1-4 µM
HCT-116 [28] = assay: Antiproliferative activity against human HCT-116 assessed as inhibition of cell viability incubated for 24 hrs by CCK8 method; format: functional, cell-based
HCT-116 [29] = assay: Effect on cleaved caspase 3 expression level in p53 knockout human HCT-116 cells at 1 to 2 uM incubated for 24 hrs by Western blot analysis; format: functional, cell-based; settings: dose 1-2 µM

- IC50 (HepG2): 4.58 µM
- IC50 (HCT-116 [7]): 6.62 µM
- IC50 (MCF7): 4.46 µM
- IC50 (BGC-823): 3.81 µM
- IC50 (HCT-116 [15]): 2.45 µM
- IC50 (A-375): 4.45 µM
- IC50 (HCT-116 [28]; HCT-116, 24 h): 2.75 µM
SMILES: CCN(CC)CCCNCc1cc2c3ccccc3n(CCCc3ccccc3)c2c(CNCCCN(CC)CC)n1
- Activity [1]: Non-toxic
- Activity (HCT-116 [2]): Time-dependent-effect
- Activity (HCT-116 [3]): Active
- Activity (HCT-116 [4]): Active
- Activity (HCT-116 [5]): 1.75%
- Activity (HCT-116 [6]): 13.9%
- inhibition (HCT-116 [8]): Active
- Activity (HCT-116 [9]): 13.7%
- Activity (HCT-116 [10]): Active
- Activity (HCT-116 [11]): Active
- Activity (HCT-116 [12]): inactive
- inhibition (HCT-116 [13]): Active
- Activity (HCT-116 [14]): inactive
- Activity (HCT-116 [16]): Active
- Activity (HCT-116 [17]): 2.02%
- Activity [18]: Non-toxic
- Activity (HCT-116 [19]): 2.28%
- viability at 2 µM (HCT-116 [20]): 82.3%
- Activity [21]: Non-toxic
- Activity (HCT-116 [22]): inactive
- Activity (HCT-116 [23]): Active
- Activity (HCT-116 [24]): inactive
- viability at 1 µM (HCT-116 [25]): 84.6%
- Activity (CT26): Active
- Activity (HCT-116 [26]): inactive
- inhibition (HCT-116 [27]): Active; Insignificant Decrease In Number Of Colonies Observed
- Activity (HCT-116 [28]): Dose-dependent-effect
- Activity (HCT-116 [29]): inactive
